Laboratory results from US12589170B2, “Devices and methods for radiopharmaceutical synthesis” (VANDERBILT UNIVERSITY, priority 2019, dated 2026).

Columns and labels:
[1] = system: rat brain; test: microPET imaging of rat brain with [18F]fallypride produced in the microfluidic chip; format: in vivo; conditions: dose of about 300 μCi, microPET for about 2 hours
Text: To further verify the utility of the resulting [^18F]fallypride, we produced (using the integrated microfluidic chip) a dose of about 300 μCi with about 19.55 Ci/μmol (723.35 GBq/μmol) of specific activity and about 98.62% of radiochemical purity, and obtained PET data from a rat brain. The time point used to calculate the specific activity was at the end of production, namely the time when the purified [^18F]fallypride was retrieved from chip. The rat was brought to the imaging lab to habituate about 3 hours prior to imaging. About 0.1 ml purified [^18F] fallypride was filtered through an about 0.45 μm filter (Millex-HV) and about 0.9 ml saline was added to formulate the PET probe used for rat injection. […] The accumulation and pharmacokinetics of [^18F]fallypride were as expected when evaluated in the rat brain.

[2] = Stability of final product at room temperature examined by radio-HPLC; format: physicochemical; conditions: duration up to about 4 hours
Protocol: A Hitachi HPLC (LaChrom Elite, Pump L-2130) equipped with a wavelength UV detector (L-2400, 254 nm) and inline radiation detector (Inline Carroll & Ramsey) was used to evaluate radiochemical purity. A C18 column (Phenomenex Gemini, particle size about 10 μm, 150×4.6 mm) was used. For the mobile phase, acetonitrile (referred as A1) mixed with water containing about 0.1% trifluoroacetic acid (TFA) was used with gradient as following: 0% A1/100% TFA for about 0-2 min, 100% A1/0% TFA for about 8-10 min. The flow rate was constantly set as about 1 mL/min. Moreover, radiochemical purity was also examined by radio thin layer chromatography (TLC) using ITLC (instant TLC) paper strips (Varian). […] The value of radioactivity was measured using a calibrated dose calibrator (Capintec, CRC-25PET). The radiochemical yields were evaluated as a percentage of total activity of ^68GaCl3 initially delivered from the generator. Unless specified elsewhere, all efficiencies are calculated based on decay-corrected values.
A radio-TLC chromatogram of synthesized product is shown in FIG. 6 and the ^68Ga-labelled peptide has an approximate retardation factor of about 0.8-1.0. Using the microfluidic device, the incorporation efficiency of 100% can be consistently achieved as determined by radio HPLC chromatogram (FIG. 7B). […]

SMILES	accumulation and pharmacokinetics in the rat brain [1]	stability of final product (retention time, product purity by radio-HPLC) [2]
C=CCN1CCC[C@H]1CNC(=O)c1cc(CCC[18F])cc(OC)c1OC [[^18F]fallypride]	as expected	–
O=C([O-])CN(CCN(CC(=O)[O-])Cc1cc(CCC(=O)NCCCCCC(=O)NCCCC[C@H](NC(=O)N[C@@H](CCC(=O)O)C(=O)O)C(=O)O)ccc1[O-])Cc1cc(CCC(=O)O)ccc1[O-].[68Ga+3].[OH3+] [^68Ga-PSMA-11]	–	no discrepancy on retention time or product purity was observed
